Data from ChEMBL document CHEMBL1131910, “Exploratory solid-phase synthesis of factor Xa inhibitors: discovery and application of p3-heterocyclic amides as novel types of non-basic arginine surrogates” (Bioorg Med Chem Lett, 1999).

Tests used:
Prothrombin [1] = biological target: T1, Prothrombin (Homo sapiens, UniProt P00734); assay: In vitro inhibition of human Thrombin (FIIa).
Coagulation factor X [2] = biological target: T2, Coagulation factor X (Homo sapiens, UniProt P00742); assay: In vitro inhibition of human Factor Xa.
T2 sequence (P00742 41-179 limits assumed): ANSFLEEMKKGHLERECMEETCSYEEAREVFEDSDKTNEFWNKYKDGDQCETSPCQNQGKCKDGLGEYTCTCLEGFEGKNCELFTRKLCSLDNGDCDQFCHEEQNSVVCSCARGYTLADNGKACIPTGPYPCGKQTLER
T2 sequence (P00742 235-488 limits assumed): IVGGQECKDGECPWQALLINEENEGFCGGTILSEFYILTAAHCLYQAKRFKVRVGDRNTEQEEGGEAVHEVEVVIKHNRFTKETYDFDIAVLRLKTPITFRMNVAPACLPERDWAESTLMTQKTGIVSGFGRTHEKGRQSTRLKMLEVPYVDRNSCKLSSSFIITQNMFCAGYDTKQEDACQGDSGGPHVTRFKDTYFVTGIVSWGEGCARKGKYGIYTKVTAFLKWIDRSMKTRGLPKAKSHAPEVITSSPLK

Plasminogen [3] = biological target: T3, Plasminogen (Homo sapiens, UniProt P00747); assay: In vitro inhibition of human thrombolytic protease Plasmin.
T3 sequence (P00747 97-580 limits assumed): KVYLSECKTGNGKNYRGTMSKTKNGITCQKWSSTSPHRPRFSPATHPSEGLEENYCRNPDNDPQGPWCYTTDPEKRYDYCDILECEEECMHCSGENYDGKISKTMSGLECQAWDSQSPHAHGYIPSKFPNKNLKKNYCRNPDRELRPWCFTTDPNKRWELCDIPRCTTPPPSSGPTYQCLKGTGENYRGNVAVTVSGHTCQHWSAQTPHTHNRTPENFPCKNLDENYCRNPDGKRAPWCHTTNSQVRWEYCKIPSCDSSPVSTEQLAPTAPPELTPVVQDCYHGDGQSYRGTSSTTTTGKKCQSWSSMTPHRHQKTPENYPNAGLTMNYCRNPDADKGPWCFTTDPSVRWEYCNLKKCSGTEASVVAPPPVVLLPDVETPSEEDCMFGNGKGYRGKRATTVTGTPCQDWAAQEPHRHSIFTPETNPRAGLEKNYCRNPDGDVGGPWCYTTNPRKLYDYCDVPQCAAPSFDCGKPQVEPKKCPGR
T3 sequence (P00747 581-810 limits assumed): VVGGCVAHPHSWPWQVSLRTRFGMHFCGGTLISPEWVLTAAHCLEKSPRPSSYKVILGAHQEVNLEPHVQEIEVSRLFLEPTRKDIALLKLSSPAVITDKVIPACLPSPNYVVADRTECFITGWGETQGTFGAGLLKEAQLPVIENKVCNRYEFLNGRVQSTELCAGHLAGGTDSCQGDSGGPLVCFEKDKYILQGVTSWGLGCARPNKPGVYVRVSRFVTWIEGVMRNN

Serine protease 1 [4] = biological target: T4, Serine protease 1 (Homo sapiens, UniProt P07477); assay: In vitro inhibition of human trypsin.
T4 sequence (P07477 whole entry): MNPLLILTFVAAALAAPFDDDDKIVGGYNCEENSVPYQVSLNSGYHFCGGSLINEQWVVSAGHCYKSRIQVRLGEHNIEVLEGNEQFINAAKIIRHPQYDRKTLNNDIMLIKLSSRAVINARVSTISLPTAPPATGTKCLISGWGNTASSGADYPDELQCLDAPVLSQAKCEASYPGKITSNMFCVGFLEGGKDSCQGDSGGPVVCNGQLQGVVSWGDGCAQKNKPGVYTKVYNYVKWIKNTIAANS

Serine protease 1 [5] = biological target: T4, Serine protease 1; assay: In vitro inhibition against human trypsin was evaluated; Inactive
Plasminogen [6] = biological target: T3, Plasminogen; assay: In vitro inhibition against human thrombolytic protease Plasmin was evaluated; Inactive
Coagulation factor X [7] = biological target: T2, Coagulation factor X; assay: In vitro inhibition against human Factor Xa (FXa) was evaluated; Inactive
Prothrombin [8] = biological target: T1, Prothrombin; assay: In vitro inhibition against human Thrombin ( FIIa) was evaluated; Inactive

Row | IC50 (Prothrombin [1]) | IC50 (Coagulation factor X [2]) | IC50 (Plasminogen [3]) | IC50 (Serine protease 1 [4]) | IC50 (Serine protease 1 [5]) | IC50 (Plasminogen [6]) | IC50 (Coagulation factor X [7]) | IC50 (Prothrombin [8]) | SMILES
1 | 2500 nM | 106 nM | 2030 nM | 30 nM |  |  |  |  | N=C(N)N1CCC[C@H](NC(=O)CNC(=O)[C@@H](CCNC(=O)c2cnccn2)NC(=O)OCc2ccccc2)C1O (some centres undefined)
2 | 1270 nM | 44.4 nM | 1440 nM | 59.2 nM |  |  |  |  | N=C(N)N1CCC[C@H](NC(=O)CNC(=O)[C@@H](CCNC(=O)c2ccc3ccccc3n2)NS(=O)(=O)Cc2ccccc2)C1O (some centres undefined)
3 | 537 nM | 10.6 nM | 250 nM | 111 nM |  |  |  |  | N=C(N)N1CCC[C@H](NC(=O)CNC(=O)[C@@H](CCNC(=O)c2cnc3ccccc3c2)NS(=O)(=O)Cc2ccccc2)C1O (some centres undefined)
4 | > 2500 nM | 79.1 nM | 2500 nM | 561 nM |  |  |  |  | N=C(N)N1CCC[C@H](NC(=O)CNC(=O)[C@@H](CCNC(=O)c2cccnc2)NS(=O)(=O)Cc2ccccc2)C1O (some centres undefined)
5 | > 2500 nM | 20.5 nM | 1140 nM | 223 nM |  |  |  |  | N=C(N)N1CCC[C@H](NC(=O)CNC(=O)[C@@H](CCNC(=O)c2ccccn2)NS(=O)(=O)Cc2ccccc2)C1O (some centres undefined)
6 | > 2500 nM | 313 nM | > 2500 nM | > 31.2 nM |  |  |  |  | N=C(N)N1CCC[C@H](NC(=O)CNC(=O)[C@@H](CCNC(=O)c2cncc(Br)c2)NC(=O)OCc2ccccc2)C1O (some centres undefined)
7 | > 2500 nM | 232 nM | > 2500 nM | 40.3 nM |  |  |  |  | Cc1cnc(C(=O)NCC[C@@H](NC(=O)OCc2ccccc2)C(=O)NCC(=O)N[C@H]2CCCN(C(=N)N)C2O)cn1 (some centres undefined)
8 | > 2500 nM | 5 nM | 521 nM | 166 nM |  |  |  |  | N=C(N)N1CCC[C@H](NC(=O)CNC(=O)[C@@H](CCNC(=O)c2cnccn2)NS(=O)(=O)Cc2ccccc2)C1O (some centres undefined)
9 | > 2500 nM | 4.9 nM | 730 nM | 97.8 nM |  |  |  |  | N=C(N)N1CCC[C@H](NC(=O)CNC(=O)[C@@H](CCNC(=O)c2nccc3ccccc23)NS(=O)(=O)Cc2ccccc2)C1O (some centres undefined)
10 | > 2500 nM | > 2500 nM |  |  | Not Active | Not Active |  |  | N=C(N)N1CCC[C@H](NC(=O)CNC(=O)[C@@H](CCNC(=O)c2nc3ccccc3nc2O)NS(=O)(=O)Cc2ccccc2)C1O (some centres undefined)
11 | 2500 nM | 15 nM | 673 nM | 324 nM |  |  |  |  | N=C(N)N1CCC[C@H](NC(=O)CNC(=O)[C@@H](CCCNC(=O)c2cnccn2)NS(=O)(=O)Cc2ccccc2)C1O (some centres undefined)
12 | > 2500 nM | 0.7 nM |  | 75 nM |  |  |  |  | N=C(N)NCCCC(NS(=O)(=O)Cc1ccccc1)C(=O)NCC(=O)N[C@H]1CCCN(C(=N)N)C1O (some centres undefined)
13 |  |  |  |  | Not Active | Not Active | Not Active | Not Active | N=C(N)N1CCC[C@H](NC(=O)CNC(=O)[C@@H](CCNC(=O)c2ccccc2)NS(=O)(=O)Cc2ccccc2)C1O (some centres undefined)
14 | 1770 nM | 5.6 nM | 700 nM | 4.21 nM |  |  |  |  | N=C(N)N1CCC[C@H](NC(=O)CNC(=O)[C@@H](CCNC(=O)c2cnnc3ccccc23)NS(=O)(=O)Cc2ccccc2)C1O (some centres undefined)
15 | > 2500 nM | 311 nM | 1480 nM | 152 nM |  |  |  |  | N=C(N)N1CCC[C@H](NC(=O)CNC(=O)[C@@H](CNC(=O)c2cnccn2)NS(=O)(=O)Cc2ccccc2)C1O (some centres undefined)
16 | > 2500 nM | 169 nM | 1140 nM | 20.4 nM |  |  |  |  | N=C(N)N1CCC[C@H](NC(=O)CNC(=O)[C@@H](CCNC(=O)c2cnc3ccccc3c2)NC(=O)OCc2ccccc2)C1O (some centres undefined)
17 | > 2500 nM | 6.1 nM | 367 nM | 26.6 nM |  |  |  |  | N=C(N)N1CCC[C@H](NC(=O)CNC(=O)[C@@H](CCNC(=O)c2ccc(O)nc2)NS(=O)(=O)Cc2ccccc2)C1O (some centres undefined)
18 | > 2500 nM | 346 nM | 3270 nM | 74.5 nM |  |  |  |  | N=C(N)N1CCC[C@H](NC(=O)CNC(=O)[C@@H](CCNC(=O)c2cn[nH]c2)NC(=O)OCc2ccccc2)C1O (some centres undefined)
19 | > 2500 nM | 10.6 nM | 1060 nM | 160 nM |  |  |  |  | N=C(N)N1CCC[C@H](NC(=O)CNC(=O)[C@@H](CCNC(=O)c2cncc(Br)c2)NS(=O)(=O)Cc2ccccc2)C1O (some centres undefined)
20 | > 2500 nM | 313 nM | > 2500 nM | > 2500 nM |  |  |  |  | N=C(N)N1CCC[C@H](NC(=O)CNC(=O)[C@@H](CCNC(=O)c2nccc3ccccc23)NC(=O)OCc2ccccc2)C1O (some centres undefined)
